Test [1] relates to patients with essential blepharospasm. Put plainly: Blink rate before and immediately after placement of a scleral contact lens with fluorescein dye in the fluid reservoir. The class given is in vivo, human. The conditions noted are these: immediately after placement of scleral lens with saline mixed with fluorescein dye. The method, then:
(§1) All patients in the study have an established diagnosis of essential blepharospasm currently managed with botulinum toxin injections. Prior to treatment with the fluorescein dye, patients are evaluated for their blink rate as determined by the number of blinks per minute. Patients are also evaluated using the Jankovic rating scale which has 2 components: 1. The severity of the eyelid spasms are rated from 0-4 (0=no spasms, 4=severe incapacitating spasms) and, 2. The frequency of spasms are rated from 0-4 (0=no spasms, 4=persistent eye closure). The sum of the severity score and the frequency score is then computed. Patients are then fitted with a scleral contact lens with normal saline solution mixed with fluorescein dye placed in the fluid reservoir. The blink rate and JRS sum score are then assessed immediately after placement of the lens.

Test [2] has the same test system. The experiment in a line: Jankovic rating scale (JRS) sum score, severity plus frequency of eyelid spasms, before and immediately after lens placement. Format: in vivo, human. The conditions noted are these: sum of severity (0-4) and frequency (0-4) scores immediately after lens placement. As for the experimental part:
as §1

For the compound `O=C1OC2(c3ccc(O)cc3Oc3cc(O)ccc32)c2ccccc21` [fluorescein], the Post blink-rate is 10 blinks per minute in test [1] (Patient 1, pre blink-rate 80); 20 blinks per minute in test [1] (Patient 2, pre blink-rate 50); 40 blinks per minute in test [1] (Patient 3, pre blink-rate 60); 35 blinks per minute in test [1] (Patient 4, pre blink-rate 70); 49 blinks per minute in test [1] (Patient 5, pre blink-rate 70). Also, the “Post JRS” value was determined as 1 in test [2] (Patient 1, pre JRS 7); 3 in test [2] (Patient 2, pre JRS 6); 4 in test [2] (Patient 3, pre JRS 6); 4 in test [2] (Patient 4, pre JRS 7); 3 in test [2] (Patient 5, pre JRS 7).
